Our source for the IC50 values is US8901118B2, “Compounds and methods for kinase modulation, and indications therefor” (Plexxikon Inc., priority 2010, dated 2014).

What all share (type): cell-based
The target in one experiment is T1, BCR-KIT BaF3 cells (Homo sapiens, UniProt P10721).
T1 construct: fused on or other part: P11274 (Breakpoint cluster region protein)
Description: BaF3 BCR-KIT cell proliferation assay (ATPlite). The note with it: read-out: Inhibition of Cell Proliferation IC50, BCR/BaF3 Kit. The method, then: (§1) Compounds are assessed in a variety of cell based assays. For example BaF3 cells engineered with any of BCR-FMS, BCR-KIT, BCR-FLT3, BCR-NTRK1, BCR-NTRK2, and BCR-NTRK3, are used in cell proliferation assays to assess inhibitory activity of Fms, Kit, Flt-3, TrkA, TrkB, and TrkC, respectively. An MV-4-11 (leukemia) cell proliferation assay is used to assess inhibitory activity in Flt-3, and SKNSH (human neuroblastoma) cell proliferation assay is used to assess efficacy of Fms/Trk inhibitors. Additional cells may be assayed similarly to assess the efficacy of Fms/Trk inhibitors, such as MiaPaCa (human pancreatic cancer) and Capan-1 (human pancreatic carcinoma) cells. Reagent and assay conditions are as follows: • BaF3 cells: • Maintained in RPMI containing 10% FBS, 1% PenStrep, 1% NEAA, and 1% L-Glutamine, supplemented with 1 mg/mL G418 and 5% WEHI-CM (or recombinant murine IL-3). • Confluent cells are split 1:50 to 1:100 every 3-4 days. • MV-4-11 cells: • Maintained in Iscove's Modified Dulbecco's Medium containing 10% FBS. • Confluent cells are split 1:4 every 3-4 days. • SKNSH cells: RPMI containing 10% FBS. On day 1, cells are counted, then centrifuged in a conical tube for 5 minutes at 1000 rpm. The supernatant is removed and cells are re-suspended as follows: • BaF3: resuspend in growth media +1 mg/mL G418 (without WEHFIL-3) to 2×10^5 cells/mL. • MV-4-11: resuspend in growth media to 5×10^5 cells/mL. • SKNSH: resuspend in growth media to 2×10^4 cells/mL. The cells are plated (50 μL, 150 μL for SKNSH cells) in each well of a 96-well dish (Corning 3610) and incubated at 37° C. in 5% CO2 overnight, cells plated to a final concentration of cells as follows: • BaF3: 10,000 cells per well. • MV-4-11: 25,000 cells per well. • SKNSH: 3,000 cells per well. On day 2, compound at a maximum concentration of 5 mM is serially diluted 1:3 for a total of 8 point titration with DMSO as a control. A 1 μL aliquot of each dilution point is added to 249 μL growth media and 50 μL is added to a well containing cells, providing 10 μM compound for the maximum concentration point. The cells are incubated for 3 days at 37° C. in 5% CO2. For SKNSH cells, a 0.75 μL aliquot of appropriate dilution in DMSO is added to 150 μL of cells. On day 5, ATPlite 1 step Luminescence Assay System (Perkin Elmer #6016739) is brought to room temperature along with the cell cultures. ATPlite is added to each well as follows: • BaF3: 25 μL per well. • MV-4-11: 40 μL per well. • SKNSH: 20 μL per well. The cells are incubated at room temperature for 10 minutes, then luminescence is read on Safire reader. The measured luminescence correlates directly with cell number, such that the reading as a function of compound concentration is used to determine the IC50 value.
(§2) It is understood that the results of these assays may vary as assay conditions are varied. Inhibition levels determined under the conditions described herein represent a relative activity for the compounds tested under the specific conditions employed. The cell based assays are likely to show variability due to the complexity of the system and the sensitivity thereof to any changes in the assay conditions. […] Results for compounds that are tested and show substantially no inhibition below the highest tested concentration are represented as “-” in the tables below. In some instances, the compounds were not tested in all of the assays, or assay results were not valid, as indicated by NA in the tables below.
(In general: ATP-based viability assays read luminescence as a measure of living cells.)

A further experiment concerns the target T2, BCR-NTRK1 BaF3 cells (Homo sapiens, UniProt P04629).
T2 construct: fused on or other part: P11274 (Breakpoint cluster region protein)
As to the kind of experiment: BaF3 BCR-NTRK1 cell proliferation assay (ATPlite). The note with it: read-out: Inhibition of Cell Proliferation IC50, BCR/BaF3 TrkA. The method, then: as §1, §2

A further experiment concerns the target T3, BCR-NTRK2 BaF3 cells (Homo sapiens, UniProt Q16620).
T3 construct: fused on or other part: P11274 (Breakpoint cluster region protein)
As to the kind of experiment: BaF3 BCR-NTRK2 cell proliferation assay (ATPlite). The note with it: read-out: Inhibition of Cell Proliferation IC50, BCR/BaF3 TrkB. How it is done: as §1, §2

T3 sequence (Q16620 538-807): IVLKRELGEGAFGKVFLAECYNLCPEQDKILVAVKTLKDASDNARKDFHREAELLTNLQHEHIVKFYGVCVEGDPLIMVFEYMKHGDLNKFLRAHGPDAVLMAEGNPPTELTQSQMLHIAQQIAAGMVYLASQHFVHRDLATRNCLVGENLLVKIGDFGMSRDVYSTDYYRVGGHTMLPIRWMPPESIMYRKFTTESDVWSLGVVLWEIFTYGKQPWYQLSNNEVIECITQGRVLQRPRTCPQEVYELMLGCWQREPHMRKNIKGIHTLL
T1 sequence (P10721 589-937): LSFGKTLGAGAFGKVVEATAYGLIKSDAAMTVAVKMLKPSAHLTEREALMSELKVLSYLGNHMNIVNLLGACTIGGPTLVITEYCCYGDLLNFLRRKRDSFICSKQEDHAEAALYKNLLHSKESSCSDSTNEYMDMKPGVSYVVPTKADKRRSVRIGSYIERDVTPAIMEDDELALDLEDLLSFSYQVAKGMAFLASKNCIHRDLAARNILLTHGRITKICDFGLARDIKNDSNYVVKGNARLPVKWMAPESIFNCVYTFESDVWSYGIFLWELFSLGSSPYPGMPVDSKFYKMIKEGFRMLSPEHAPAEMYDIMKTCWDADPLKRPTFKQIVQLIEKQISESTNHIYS
T2 sequence (P04629 510-781): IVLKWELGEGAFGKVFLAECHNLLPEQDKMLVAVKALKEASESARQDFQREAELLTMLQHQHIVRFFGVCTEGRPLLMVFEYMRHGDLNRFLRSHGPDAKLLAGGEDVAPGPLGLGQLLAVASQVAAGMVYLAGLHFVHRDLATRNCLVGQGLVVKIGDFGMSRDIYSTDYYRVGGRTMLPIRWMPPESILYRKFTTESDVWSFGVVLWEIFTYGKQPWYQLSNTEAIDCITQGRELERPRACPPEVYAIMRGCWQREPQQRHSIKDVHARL

As for `CCNc1ncnc2[nH]cc(C(=O)c3ccc(Nc4ccc(OC)nc4)nc3F)c12` [Compound P-4081, [4-(ethylamino)-7H-pyrrolo[2,3-d]pyrimidin-5-yl]-[2-fluoro-6-[(6-methoxy-3-pyridyl)amino]-3-pyridyl]methanone], the IC50 at BCR-KIT BaF3 cells was less than 100 nM; on BCR-NTRK1 BaF3 cells, less than 10 nM; on BCR-NTRK2 BaF3 cells, less than 10 nM.
Consider `COc1ccc(Nc2ccc(C(=O)c3c[nH]c4ncnc(NC5CCCCC5)c34)c(F)n2)cn1` [Compound P-4082, [4-(cyclohexylamino)-7H-pyrrolo[2,3-d]pyrimidin-5-yl]-[2-fluoro-6-[(6-methoxy-3-pyridyl)amino]-3-pyridyl]methanone], for which the IC50 is less than 100 nM at BCR-KIT BaF3 cells, less than 10 nM at BCR-NTRK1 BaF3 cells and less than 10 nM at BCR-NTRK2 BaF3 cells.
As to `CNc1ncnc2[nH]cc(C(=O)c3ccc(Nc4ccc(OC)nc4)nc3F)c12` [Compound P-4083, [2-fluoro-6-[(6-methoxy-3-pyridyl)amino]-3-pyridyl]-[4-(methylamino)-7H-pyrrolo[2,3-d]pyrimidin-5-yl]methanone], the IC50 at BCR-KIT BaF3 cells is less than 100 nM; at BCR-NTRK1 BaF3 cells, less than 10 nM; at BCR-NTRK2 BaF3 cells, less than 10 nM.
With `COc1ccc(Nc2ccc(C(=O)c3c[nH]c4ncnc(NCC(F)(F)F)c34)c(F)n2)cn1` [Compound P-4084, [2-fluoro-6-[(6-methoxy-3-pyridyl)amino]-3-pyridyl]-[4-(2,2,2-trifluoroethylamino)-7H-pyrrolo[2,3-d]pyrimidin-5-yl]methanone], the IC50 on BCR-KIT BaF3 cells is less than 1000 nM; on BCR-NTRK1 BaF3 cells, less than 100 nM; on BCR-NTRK2 BaF3 cells, less than 10 nM.
Taken in the same sequence, the figures for `O=C(c1ccc(NC2CCC(F)(F)CC2)nc1)c1c[nH]c2ncnc(NCC(F)(F)F)c12` [Compound P-4087, [6-[(4,4-difluorocyclohexyl)amino]-3-pyridyl]-[4-(2,2,2-trifluoroethylamino)-7H-pyrrolo[2,3-d]pyrimidin-5-yl]methanone] were more than 1000 nM, less than 1000 nM and less than 100 nM.
For `O=C(c1ccc(NC2CCC(F)(F)CC2)nc1)c1c[nH]c2ncnc(NC3CC3)c12` [Compound P-4088, [4-(cyclopropylamino)-7H-pyrrolo[2,3-d]pyrimidin-5-yl]-[6-[(4,4-difluorocyclohexyl)amino]-3-pyridyl]methanone] the same measures were less than 1000 nM, less than 100 nM and less than 100 nM.
On to `CNc1ncnc2[nH]cc(C(=O)c3ccc(NC4CCC(F)(F)CC4)nc3)c12` [Compound P-4089, [6-[(4,4-difluorocyclohexyl)amino]-3-pyridyl]-[4-(methylamino)-7H-pyrrolo[2,3-d]pyrimidin-5-yl]methanone], for which the results for the IC50 on BCR-KIT BaF3 cells, at BCR-NTRK1 BaF3 cells and on BCR-NTRK2 BaF3 cells were less than 1000 nM, less than 1000 nM and less than 100 nM, respectively.
Regarding `O=C(c1ccc(Nc2ccc(C3CC3)nc2)nc1F)c1c[nH]c2ncnc(NCC(F)(F)F)c12` [Compound P-4090, [6-[(6-cyclopropyl-3-pyridyl)amino]-2-fluoro-3-pyridyl]-[4-(2,2,2-trifluoroethylamino)-7H-pyrrolo[2,3-d]pyrimidin-5-yl]methanone], the values for the IC50 on BCR-KIT BaF3 cells, at BCR-NTRK1 BaF3 cells and on BCR-NTRK2 BaF3 cells were less than 1000 nM, less than 100 nM and less than 10 nM, respectively.
Taken in the same sequence, the figures for `O=C(c1ccc(Nc2ccc(C(F)(F)F)nc2)nc1F)c1c[nH]c2ncnc(NC3CC3)c12` [Compound P-4091, [4-(cyclopropylamino)-7H-pyrrolo[2,3-d]pyrimidin-5-yl]-[2-fluoro-6-[[6-(trifluoromethyl)-3-pyridyl]amino]-3-pyridyl]methanone] were less than 100 nM, less than 10 nM and less than 10 nM.
Regarding `CNc1ncnc2[nH]cc(C(=O)c3ccc(Nc4ccc(C(F)(F)F)nc4)nc3F)c12` [Compound P-4092, [2-fluoro-6-[[6-(trifluoromethyl)-3-pyridyl]amino]-3-pyridyl]-[4-(methylamino)-7H-pyrrolo[2,3-d]pyrimidin-5-yl]methanone], the IC50 on BCR-KIT BaF3 cells is less than 100 nM; at BCR-NTRK1 BaF3 cells it was less than 10 nM; on BCR-NTRK2 BaF3 cells it was less than 10 nM.
Turning to `O=C(c1ccc(Nc2ccc(C3CC3)nc2)nc1F)c1c[nH]c2ncnc(NC3CC3)c12` [Compound P-4093, [4-(cyclopropylamino)-7H-pyrrolo[2,3-d]pyrimidin-5-yl]-[6-[(6-cyclopropyl-3-pyridyl)amino]-2-fluoro-3-pyridyl]methanone], the IC50 is less than 100 nM at BCR-KIT BaF3 cells, less than 10 nM at BCR-NTRK1 BaF3 cells and less than 10 nM at BCR-NTRK2 BaF3 cells.
On to `CNc1ncnc2[nH]cc(C(=O)c3ccc(Nc4ccc(C5CC5)nc4)nc3F)c12` [Compound P-4094, [6-[(6-cyclopropyl-3-pyridyl)amino]-2-fluoro-3-pyridyl]-[4-(methylamino)-7H-pyrrolo[2,3-d]pyrimidin-5-yl]methanone], for which the results for the IC50 at BCR-KIT BaF3 cells, at BCR-NTRK1 BaF3 cells and on BCR-NTRK2 BaF3 cells were less than 100 nM, less than 10 nM and less than 10 nM, respectively.
For the compound `CCc1ccc(Nc2ccc(C(=O)c3c[nH]c4ncnc(NC5CCC5)c34)c(F)n2)cn1` [Compound P-4095, [4-(cyclobutylamino)-7H-pyrrolo[2,3-d]pyrimidin-5-yl]-[6-[(6-ethyl-3-pyridyl)amino]-2-fluoro-3-pyridyl]methanone], the IC50 is less than 100 nM on BCR-KIT BaF3 cells, less than 10 nM on BCR-NTRK1 BaF3 cells and less than 10 nM on BCR-NTRK2 BaF3 cells.
Turning to `CCc1ccc(Nc2ccc(C(=O)c3c[nH]c4ncnc(NC5CCC(F)(F)CC5)c34)c(F)n2)cn1` [Compound P-4096, [4-[(4,4-difluorocyclohexyl)amino]-7H-pyrrolo[2,3-d]pyrimidin-5-yl]-[6-[(6-ethyl-3-pyridyl)amino]-2-fluoro-3-pyridyl]methanone], the IC50 at BCR-KIT BaF3 cells was less than 1000 nM; at BCR-NTRK1 BaF3 cells it was less than 10 nM; on BCR-NTRK2 BaF3 cells, less than 10 nM.
Regarding `CCc1ccc(Nc2ccc(C(=O)c3c[nH]c4ncnc(N[C@@H](C)c5ccc(F)cc5)c34)c(F)n2)cn1` [Compound P-4097, [6-[(6-ethyl-3-pyridyl)amino]-2-fluoro-3-pyridyl]-[4-[[(1S)-1-(4-fluorophenyl)ethyl]amino]-7H-pyrrolo[2,3-d]pyrimidin-5-yl]methanone], the IC50 on BCR-KIT BaF3 cells is less than 1000 nM; on BCR-NTRK1 BaF3 cells, less than 100 nM; on BCR-NTRK2 BaF3 cells it was less than 100 nM.
As to `CCc1ccc(Nc2ccc(C(=O)c3c[nH]c4ncnc(NCCCOC)c34)c(F)n2)cn1` [Compound P-4098, [6-[(6-ethyl-3-pyridyl)amino]-2-fluoro-3-pyridyl]-[4-(3-methoxypropylamino)-7H-pyrrolo[2,3-d]pyrimidin-5-yl]methanone], the IC50 at BCR-KIT BaF3 cells is less than 100 nM; at BCR-NTRK1 BaF3 cells, less than 10 nM; on BCR-NTRK2 BaF3 cells, less than 10 nM.
Turning to `CCc1ccc(Nc2ccc(C(=O)c3c[nH]c4ncnc(NC5CCCC5)c34)c(F)n2)cn1` [Compound P-4099, [4-(cyclopentylamino)-7H-pyrrolo[2,3-d]pyrimidin-5-yl]-[6-[(6-ethyl-3-pyridyl)amino]-2-fluoro-3-pyridyl]methanone], the IC50 was less than 100 nM on BCR-KIT BaF3 cells, less than 10 nM on BCR-NTRK1 BaF3 cells and less than 10 nM at BCR-NTRK2 BaF3 cells.
With `CCCCNc1ncnc2[nH]cc(C(=O)c3ccc(Nc4ccc(CC)nc4)nc3F)c12` [Compound P-4100, [4-(butylamino)-7H-pyrrolo[2,3-d]pyrimidin-5-yl]-[6-[(6-ethyl-3-pyridyl)amino]-2-fluoro-3-pyridyl]methanone], the IC50 on BCR-KIT BaF3 cells was less than 1000 nM; at BCR-NTRK1 BaF3 cells, less than 10 nM; at BCR-NTRK2 BaF3 cells it was less than 10 nM.
